Assay results from PubChem BioAssay AID1963830 (Molecular Pharmacology Branch, DTP, NCI, 2024).

Tested on: 922993-354-T-J3-PDC complex spheroid viability
Assay: Anticancer human tumor 922993-354-T-J3-PDC patient-derived endometrial carcinoma cell line growth inhibition [POLQ]
Details: for IC50: curve of first compound; for viability, T/C: stronger effect = lower value; active = viability on the fitted dose curve at most 10% of control; inactive = the rest
Procedure, shortened: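 Growth inhibition in 3D: complex spheroids (tumor PDC, HUVEC, MSC) treated with POLQ inhibitor combinations; where Cmax unknown, highest tested concentration 10 microM, except SN-38 at 1 microM.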
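Note: spheroids exposed to the agents for one week.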
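Throughout, for viability, T/C: 100% = DMSO vehicle control wells.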

C=CCn1c(=O)c2cnc(Nc3ccc(N4CCN(C)CC4)cc3)nc2n1-c1cccc(C(C)(C)O)n1 + Nc1ccc(C#CCN(C(=O)Cc2ncc(C(F)(F)F)cc2C(F)(F)F)c2ccc(F)cc2)nn1
> 1 µM: IC50 (second compound 0.0316 µM) | IC50 (second compound 0.1 µM) | IC50 (second compound 0.316 µM) | IC50 (second compound 1 µM) | IC50 (second compound 3.16 µM) | IC50 (second compound 10 µM)
inactive: viability, T/C (second compound 0.0316 µM, first compound 0.00316 µM) 105% | viability, T/C (second compound 0.0316 µM, first compound 0.01 µM) 102% | viability, T/C (second compound 0.0316 µM, first compound 0.0316 µM) 101% | viability, T/C (second compound 0.0316 µM, first compound 0.1 µM) 100% | viability, T/C (second compound 0.0316 µM, first compound 0.316 µM) 106% | viability, T/C (second compound 0.0316 µM, first compound 1 µM) 98.5% | viability, T/C (second compound 0.1 µM, first compound 0.00316 µM) 107% | viability, T/C (second compound 0.1 µM, first compound 0.01 µM) 98.5% | viability, T/C (second compound 0.1 µM, first compound 0.0316 µM) 103% | viability, T/C (second compound 0.1 µM, first compound 0.1 µM) 99.6% | viability, T/C (second compound 0.1 µM, first compound 0.316 µM) 104% | viability, T/C (second compound 0.1 µM, first compound 1 µM) 101% | viability, T/C (second compound 0.316 µM, first compound 0.00316 µM) 107% | viability, T/C (second compound 0.316 µM, first compound 0.01 µM) 101% | viability, T/C (second compound 0.316 µM, first compound 0.0316 µM) 97.5% | viability, T/C (second compound 0.316 µM, first compound 0.1 µM) 101% | viability, T/C (second compound 0.316 µM, first compound 0.316 µM) 99.6% | viability, T/C (second compound 0.316 µM, first compound 1 µM) 100% | viability, T/C (second compound 1 µM, first compound 0.00316 µM) 103% | viability, T/C (second compound 1 µM, first compound 0.01 µM) 99% | viability, T/C (second compound 1 µM, first compound 0.0316 µM) 101% | viability, T/C (second compound 1 µM, first compound 0.1 µM) 97.6% | viability, T/C (second compound 1 µM, first compound 0.316 µM) 100% | viability, T/C (second compound 1 µM, first compound 1 µM) 100% | viability, T/C (second compound 3.16 µM, first compound 0.00316 µM) 100% | viability, T/C (second compound 3.16 µM, first compound 0.01 µM) 98.8% | viability, T/C (second compound 3.16 µM, first compound 0.0316 µM) 101% | viability, T/C (second compound 3.16 µM, first compound 0.1 µM) 99.4% | viability, T/C (second compound 3.16 µM, first compound 0.316 µM) 101% | viability, T/C (second compound 3.16 µM, first compound 1 µM) 94.8% | viability, T/C (second compound 10 µM, first compound 0.00316 µM) 96.3% | viability, T/C (second compound 10 µM, first compound 0.01 µM) 92.5% | viability, T/C (second compound 10 µM, first compound 0.0316 µM) 94.5% | viability, T/C (second compound 10 µM, first compound 0.1 µM) 95.8% | viability, T/C (second compound 10 µM, first compound 0.316 µM) 97% | viability, T/C (second compound 10 µM, first compound 1 µM) 55.2%
